The source of these data is patent US6737425B1, “N,N-substituted cyclic amine derivatives” (Eisai Co., Ltd., priority 1998, dated 2004).

Structures can show the parent of a compound that is named as a salt.

The subject of the first assay is voltage-dependent calcium channels (cerebral cortex synaptosome). In words: Measurement of voltage-dependent calcium channel activity by the use of a fluorescent pigment (fura 2). The following applies: rat cerebral cortex synaptosome, fura 2, KCl stimulation, compound incubated 10 minutes. The format is cell-based. On the procedure: Measurement of Voltage-dependent Calcium Channel Activity by the use of a Fluorescent Pigment (fura 2)
Cerebral cortexes were removed from cut rat brains and disrupted roughly with scissors. These were introduced into a homogenizer, homogenized in 0.3 M saccharose and centrifuged at 4° C. (1,500 g×10 min). The resulting supernatant was further centrifuged at 4° C. (10,000 g×20 min). The resulting precipitates were suspended in 0.3 M saccharose. The suspension was layered on 0.8 M saccharose and centrifuged (10,000 g×30 min.).
4 μM fura 2/AM (Dojin Ltd.) was suspended in solution A to prepare a loading solution. To the synaptosome solution prepared in the method described above was added an equal volume of the loading solution, and the mixture was incubated for 40 minutes at room temperature.
As comparative and control compound, verapamil hydrochloride was used.
For `COc1cc(F)ccc1OCCN1CCN(CCCC(C#N)(c2ccccc2)C(C)C)CC1` (centres unmarked) [Example 88, 1-[(4-Cyano-5-methyl-4-phenyl)hexyl]-4-[2-(2-methoxy-4-fluorophenoxy)ethyl]piperazine], the IC50 (as a rule, the concentration at which inhibition is half-maximal) was found to be 4.9 µM.

Regarding `CC(C)C(C#N)(CCCN1CCN(CCOc2ccc(-n3ccnc3)cc2)CC1)c1ccccc1` (centres unmarked) [Example 111, 1-[(4-Cyano-5-methyl-4-phenyl)hexyl]-4-{2-[4-(imidazol-1-yl)phenoxy]ethyl}piperazine], the 50% inhibitory concentration (IC50) was > 16 µM. The same measure, in the same setting: in the case of `CC(C)C(C#N)(CCCN1CCN(CCOc2ccc([N+](=O)[O-])cc2)CC1)c1ccccc1` (centres unmarked) [Example 8, 1-[(4-Cyano-5-methyl-4-phenyl)hexyl]-4-[2-(4-nitrophenoxy)ethyl]piperazine] it was 4.2 µM; in that of `CC(C)C(C#N)(CCCN1CCN(CCC(=O)c2ccc(F)cc2)CC1)c1ccccc1` (centres unmarked) [Example 59, 1-[(4-Cyano-5-methyl-4-phenyl)hexyl]-4-[2-(4-fluorobenzoyl)ethyl]piperazine], 12 µM; in that of `CC(C)C(C#N)(CCCN1CCN(CCOc2ccncc2)CC1)c1ccccc1` (centres unmarked) [Example 99, 1-[(4-Cyano-5-methyl-4-phenyl)hexyl]-4-[2-(4-pyridyloxy)ethyl]piperazine], > 16 µM. For `CC(C)C(C#N)(CCCN1CCN(CCOc2cccc(F)c2)CC1)c1cccs1` (centres unmarked) [Example 116, 1-[4-Cyano-5-methyl-4-(2-thienyl)hexyl]-4-[2-(3-fluorophenoxy)ethyl]piperazine], the concentration for half-maximal inhibition (IC50) worked out at 5.5 µM.

With `CC(C)C(C#N)(CCCN1CCN(CCN(C)S(=O)(=O)c2ccc(F)cc2)CC1)c1ccccc1` (centres unmarked) [Example 69, 1-[(4-cyano-5-methyl-4-phenyl)hexyl]-4-[2-(N-methyl-4-fluorobenzenesulfonylamino)ethyl]piperazine], the IC50 came out at 9.2 µM. On the same count and under the same terms, for `CC(C)C(C#N)(CCCN1CCN(CCOc2ccc(F)cc2)CC1)c1ccc(C=NO)cc1` (centres unmarked) [Example 14, 1-[4-Cyano-5-methyl-4-(4-hydroxyiminomethylphenyl)hexyl]-4-[2-(4-fluorophenoxy)ethyl]piperazine] the value was 8.7 µM; for `CC(C)N(CCN1CCN(CCCC(C#N)(c2ccccc2)C(C)C)CC1)c1ccccc1` (centres unmarked) [Example 89, 1-[(4-Cyano-5-methyl-4-phenyl)hexyl]-4-[2-(N-isopropylanilino)ethyl]piperazine], 2.7 µM. Regarding `COc1ccc(OCCN2CCN(CCCC(C#N)(c3ccccc3)C(C)C)CC2)cc1` (centres unmarked) [Example 39, 1-[(4-Cyano-5-methyl-4-phenyl)hexyl]-4-[2-(4-methoxyphenoxy)ethyl]piperazine], the IC50 was 9.6 µM. The same measure, in the same setting: for `CC(C)C(C#N)(CCCN1CCN(CCOc2cccc3ccccc23)CC1)c1ccccc1` (centres unmarked) [Example 103, 1-[(4-Cyano-5-methyl-4-phenyl)hexyl]-4-[2-(1-naphthyloxy)ethyl]piperazine] the value was 2.5 µM; for `CC(C)C(C#N)(CCCN1CCN(CCOc2cccc(C#N)c2)CC1)c1ccccc1` (centres unmarked) [Example 119, 1-[(4-Cyano-5-methyl-4-phenyl)hexyl]-4-[2-(3-cyanophenoxy)ethyl]piperazine], 7.7 µM.

With `CCCC(C#N)(CCCN1CCN(CCOc2ccc(F)cc2)CC1)c1ccccc1` (centres unmarked) [Example 27, 1-[(4-Cyano-4-phenyl)heptyl]-4-[2-(4-fluorophenoxy)ethyl]piperazine], the IC50 is 4.6 µM.

With `CC(C)C(C#N)(CCCN1CCN(CCOc2ncccn2)CC1)c1ccccc1` (centres unmarked) [Example 112, 1-[(4-Cyano-5-methyl-4-phenyl)hexyl]-4-[2-(2-pyrimidinyloxy)ethyl]piperazine], the IC50 was > 16 µM. Regarding `C=C(C)C(C#N)(CCCN1CCN(CCOc2ccc(F)cc2)CC1)c1ccccc1` (centres unmarked) [Example 82, 1-[5-(4-Cyano-5-methyl-4-phenyl)hexenyl]-4-[2-(4-fluorophenoxyl)ethyl]piperazine], the IC50 worked out at 5 µM.

For the compound `CC(C)C(C#N)(CCCN1CCN(CCOc2ccc(F)c(F)c2)CC1)c1ccccc1` (centres unmarked) [Example 35, 1-[(4-Cyano-5-methyl-4-phenyl)hexyl]-4-[2-(3,4-difluorophenoxy)ethyl]piperazine], the IC50 was determined as 5.2 µM.

With `CC(C)C(C#N)(CCCN1CCN(CCNS(=O)(=O)c2ccc(F)cc2)CC1)c1ccccc1` (centres unmarked) [Example 66, 1-[(4-Cyano-5-methyl-4-phenyl)hexyl]-4-[2-(4-fluorobenzenesulfonylamino)ethyl]piperazine], the IC50 came out at 8.2 µM. On to `CCCCC(C#N)(CCCN1CCN(CCOc2ccc(F)cc2)CC1)c1ccccc1` (centres unmarked) [Example 29, 1-[(4-Cyano-4-phenyl)octyl]-4-[2-(4-fluorophenoxy)ethyl]piperazine], for which the IC50 amounted to 4 µM.

Turning to `CC(C)C(C#N)(CCCN1CCN(CCOc2ccc(F)cc2O)CC1)c1ccccc1` (centres unmarked) [Example 84, 1-[(4-Cyano-5-methyl-4-phenyl)hexyl]-4-[2-(2-hydroxy-4-fluorophenoxy)ethyl]piperazine], the IC50 worked out at 6 µM. Still for that read-out and setting: in the case of `CC(C)c1ccc(N(C)CCN2CCN(CCCC(C#N)(c3ccccc3)C(C)C)CC2)cc1` (centres unmarked) [Example 91, 1-[(4-Cyano-5-methyl-4-phenyl)hexyl]-4-{2-[N-methyl(4-isopropylanilino)ethyl]}piperazine] it was 2.1 µM. Same read-out and setting: for `CC(C)C(C#N)(CCCN1CCN(CCCOc2ccc(F)cc2)CC1)c1ccccc1` (centres unmarked) [Example 2, 1-[(4-Cyano-5-methyl-4-phenyl)hexyl]-4-[3-(4-fluorophenoxy)propyl]piperazine] the value was 4 µM. In the case of `CC(C)CC(C#N)(CCCN1CCN(CCOc2ccc(F)cc2)CC1)c1ccccc1` (centres unmarked) [Example 30, 1-[(4-Cyano-6-methyl-4-phenyl)hepthyl]-4-[2-(4-fluorophenoxy)ethyl]piperazine], the IC50 was 2.9 µM.

As to `CC(C)C(C#N)(CCCN1CCN(CCS(=O)(=O)Nc2ccc(F)cc2)CC1)c1ccccc1` (centres unmarked) [Example 67, 1-[(4-Cyano-5-methyl-4-phenyl)hexyl]-4-{2-[N-(4-fluorophenyl)sulfamoyl]ethyl}piperazine], the IC50 came out at 10 µM. With `CC(C)C(C#N)(CCCN1CCN(CCOc2ccc(F)cc2)CC1)c1ccc(O)cc1` (centres unmarked) [Example 83, 1-[4-Cyano-5-methyl-4-(4-hydroxyphenyl)hexyl]-4-[2-(4-fluorophenoxy)ethyl]piperazine], the half-inhibitory concentration (IC50) stood at 13 µM.

`COc1ccc(CCN(C)CCCC(C#N)(c2ccc(OC)c(OC)c2)C(C)C)cc1OC` (centres unmarked) [Control, verapamil hydrochloride, reference compound]: the half-maximal inhibitory concentration (IC50) is > 16 µM.

For the compound `CC(C)C(C#N)(CCCN1CCN(CCOc2cccnc2)CC1)c1ccccc1` (centres unmarked) [Example 100, 1-[(4-Cyano-5-methyl-4-phenyl)hexyl]-4-[2-(3-pyridyloxy)ethyl]piperazine], the IC50 was > 16 µM.

As to `CC(C)C(C#N)(CCCN1CCN(CCOc2ccc(C(F)(F)F)cc2)CC1)c1ccccc1` (centres unmarked) [Example 102, 1-[(4-Cyano-5-methyl-4-phenyl)hexyl]-4-[2-(4-trifluoromethylphenoxy)ethyl]piperazine], the IC50 was 2.7 µM. In the case of `CC(C)C(C#N)(CCCN1CCN(CCOc2ccccc2F)CC1)c1ccccc1` (centres unmarked) [Example 31], the IC50 is 9.3 µM. The same measure, in the same setting: for `CC(C)C(C#N)(CCCN1CCN(CCCCCOc2ccc(F)cc2)CC1)c1ccccc1` (centres unmarked) [Example 33] the value was 3.4 µM.

As to `Cc1cccc(/C=C/c2ccccc2OCCN2CCN(CCCC(C#N)(c3ccccc3)C(C)C)CC2)n1` (centres unmarked) [Example 118, 1-[(4-Cyano-5-methyl-4-phenyl)hexyl]-4-{2-[2-(6-methyl-2-pyridyl)vinylphenoxyl]ethyl}piperazine], the IC50 was determined as 6.4 µM. Still for that read-out and setting: for `CC(C)C(C#N)(CCCN1CCN(CCOc2cccc(-c3cccnc3)c2)CC1)c1ccccc1` (centres unmarked) [Example 107, 1-[(4-Cyano-5-methyl-4-phenyl)hexyl]-4-{2-[3-(3-pyridyl)phenoxy]ethyl}piperazine] the value was 4.1 µM; for `CCC(CN1CCN(CCCC(C#N)(c2ccccc2)C(C)C)CC1)Oc1ccc(F)cc1` (centres unmarked) [Example 104, 1-[(4-Cyano-5-methyl-4-phenyl)hexyl]-4-[2-(4-fluorophenoxy)butyl]piperazine], 2.2 µM. `CC(C)C(C#N)(CCCN1CCN(CCOc2ccccc2C#N)CC1)c1ccccc1` (centres unmarked) [Example 46, 1-[(4-Cyano-5-methyl-4-phenyl)hexyl]-4-[2-(2-cyanophenoxy)ethyl]piperazine]: the IC50 was 16 µM. For the compound `CC(CCC(C#N)(c1ccccc1)C(C)C)N1CCN(CCOc2ccc(F)cc2)CC1` (centres unmarked) [Example 97, 1-[{2-(5-Cyano-6-methyl-5-phenyl)heptyl}]-4-[2-(4-fluorophenoxy)ethyl]piperazine], the IC50 came to 3.9 µM. The same measure, in the same setting: in the case of `CC(C)C(C#N)(CCCN1CCN(CCOc2ccc3c(c2)OCO3)CC1)c1ccccc1` (centres unmarked) [Example 94, 1-[(4-Cyano-5-methyl-4-phenyl)hexyl]-4-{2-[3,4-(methylenedioxy)phenoxy]ethyl}piperazine] it was 6.1 µM; in that of `CC(C)C(C#N)(CCCN1CCCN(CCOc2ccc(F)cc2)CC1)c1ccccc1` (centres unmarked) [Example 3], 4.8 µM.

The assay is the same for the next values; noted with them: rat cerebral cortex synaptosome, fura 2, KCl stimulation, compound incubated 10 minutes; Hydrochloride.
In the case of `CC(C)C(C#N)(CCN1CCN(CCOc2ccc(F)cc2)CC1)c1ccccc1` (single isomer, unassigned; (+)) [Example 78, (+)-1-[(3-Cyano-4-methyl-3-phenyl)pentyl]-4-[2-(4-fluorophenoxyl)ethyl]piperazine Hydrochloride], the IC50 was 15 µM. Still for that read-out and setting: in the case of `N#CC(CCCN1CCN(CCOc2ccc(F)cc2)CC1)(c1ccccc1)C1CCCCC1` (single isomer, unassigned; (+)) [Example 80, (+)-1-[(4-Cyano-4-cyclohexyl-4-phenyl)butyl]-4-[2-(4-fluorophenoxyl)ethyl]piperazine Hydrochloride] it was 3.8 µM.
